Laboratory results: ChEMBL document CHEMBL1135366, “An N1-hydrogen bonding model for flavin coenzyme” (Bioorg Med Chem Lett, 2002)

Columns and labels:
[1] = Reaction constant k1 value for the oxidation of the 1-benzyl-dihydronicotinamide in 100 mM, pH 7.4 phosphate buffer at 15 degrees C
[2] = Reaction constant k1 value for the oxidation of the 1-benzyl-dihydronicotinamide in 100 mM, pH 7.4 phosphate buffer at 30 degrees C
[3] = Reaction constant k1 value for sulfite (100 mM) addition at pH 7.4 phosphate buffer at 30 degrees C
[4] = Reaction constant k-1 value for sulfite (100 mM) addition at pH 7.4 phosphate buffer at 30 degrees C
[5] = Dissociation constant value was determined

With `Cn1c2nc(=O)[nH]c(=O)c-2nc2ccccc21` as the molecule, how does the K1 [1] read?
Its K1 is 15.5 M⁻¹ s⁻¹.

What about the K1 [2] of the same molecule?
Its K1 is 42.9 M⁻¹ s⁻¹.

Which K1 [3] does the source give for `O=c1nc2n3c4c(cccc4nc-2c(=O)[nH]1)CCC3` here?
The K1 was 0.00738 M⁻¹ s⁻¹.

What about the K1 [1] of the same molecule?
The K1 was 10.2 M⁻¹ s⁻¹.

And the K1 [2]?
The K1 was 25.7 M⁻¹ s⁻¹.

And the K-1 [4]?
Its K-1 is 0.651 min⁻¹.

What about the Kd [5] of the same molecule?
The Kd was 1470 mM.

Which K1 [3] does the source give for `O=c1nc2n3c4c(cccc4nc-2c(=O)[nH]1)CCC3CO` (configuration not stated) here?
Its K1 is 0.00822 M⁻¹ s⁻¹.

And the K1 [1]?
Its K1 is 10.8 M⁻¹ s⁻¹.

What about the K1 [2] of the same molecule?
Its K1 is 24.9 M⁻¹ s⁻¹.

What about the K-1 [4] of the same molecule?
The K-1 was 0.183 min⁻¹.

And the Kd [5]?
The Kd was 371 mM.
